Earlier results on 1 compound are cited in patent publication US20170000799A1, “ORAL PHARMACEUTICAL COMPOSITION” (LABORATORIOS DEL DR. ESTEVE, S.A., priority 2013, published 2017).

For this data set the following is noted: many organic solvents, including ethanol.

On to `O=C(NC[C@H]1CN(c2ccc(N3CCOCC3=O)cc2)C(=O)O1)c1ccc(Cl)s1` [Rivaroxaban, 5-Cloro-N-[2-oxo-3-[4-(3-oxomorpholin-4-yl)phenyl]-1,3-oxazolidin-5(S)-ylmethyl]-thiophene-2-carboxamide], for which the “solubility in organic solvents” value is “low solubility”.
